Test results published in patent US10000507B2, “Furo- and thieno-pyridine carboxamide compounds useful as pim kinase inhibitors” (Incyte Corporation, priority 2013, dated 2018).

Key:
Type in all cases: biochemical
[1] = biological target: Pim-1 (Homo sapiens (Human), UniProt P11309); experiment: Pim-1 kinase assay; conditions: 1 mM ATP, biotin-labeled BAD peptide substrate; read-out: Pim1 IC50
Procedure: (§1) Pim-1 and Pim-3 kinase assays-20 μL reactions were run in white 384 well polystyrene plates dotted with 0.8 μL compound/DMSO in the assay buffer (50 mM Tris, pH 7.5, 0.01% Tween-20, 5 mM MgCl2, 0.01% BSA, 5 mM DTT), containing […] Biotin-labeled BAD peptide substrate (AnaSpec 62269), 1 mM ATP, and 2.5 pM (Pim-1, Invitrogen PV3503) or 1.25 pM (Pim-3, Millipore 14-738) enzyme for 1 h at 25° C. Reactions were stopped by addition of 10 μL STOP Buffer (150 mM Tris, pH=7.5, 150 mM NaCl, 75 mM EDTA, 0.01% Tween-20, 0.3% BSA) supplemented with Phospho-Bad (Ser112) Antibody (Cell Signaling 9291) diluted 666-fold, and Streptavidin donor beads (PerkinElmer 6760002) along with Protein-A acceptor beads (PerkinElmer 6760137) at 15 μg/mL each. Supplementation of the STOP buffer with beads and stopping the reactions were done under reduced light. Prior to the stopping reactions STOP buffer with beads was pre-incubated for 1 h in the dark at room temperature. After stopping the reactions, plates were incubated for 1 h in the dark at room temperature before reading on a PHERAstar FS plate reader (BMG Labtech) under reduced light.

[2] = biological target: Pim-2 (Homo sapiens (Human), UniProt Q9P1W9); experiment: Pim-2 kinase assay; conditions: 1 mM ATP, fluorescein-labeled CREBtide peptide substrate; read-out: Pim2 IC50
Procedure: Pim-2 kinase assay-20 μL reactions were run in white 384 well polystyrene plates dotted with 0.8 μL compound/DMSO in the assay buffer (50 mM Tris, pH 7.5, 0.01% Tween-20, 5 mM MgCl2, 0.01% BSA, 5 mM DTT), containing 0.05 μm Fluorescein-labeled CREBtide peptide substrate (Invitrogen PV3508), 1 mM ATP, and 1 nM enzyme (Invitrogen PV3649) for 2 h at 25° C. Reactions were stopped by addition of 10 μL TR-FRET Dilution Buffer (Invitrogen PV3574) with 30 mM EDTA and 1.5 nM LanthaScreen Tb-CREB pSer133 antibody (Invitrogen PV3566). After 30 min. incubation at room temperature, plates were read on a PHERAstar FS plate reader (BMG Labtech).

[3] = biological target: Pim-3 (Homo sapiens (Human), UniProt Q86V86); experiment: Pim-3 kinase assay; conditions: 1 mM ATP, biotin-labeled BAD peptide substrate; read-out: Pim3 IC50
Procedure: as §1

Pim-2, sequence (Q9P1W9 whole entry): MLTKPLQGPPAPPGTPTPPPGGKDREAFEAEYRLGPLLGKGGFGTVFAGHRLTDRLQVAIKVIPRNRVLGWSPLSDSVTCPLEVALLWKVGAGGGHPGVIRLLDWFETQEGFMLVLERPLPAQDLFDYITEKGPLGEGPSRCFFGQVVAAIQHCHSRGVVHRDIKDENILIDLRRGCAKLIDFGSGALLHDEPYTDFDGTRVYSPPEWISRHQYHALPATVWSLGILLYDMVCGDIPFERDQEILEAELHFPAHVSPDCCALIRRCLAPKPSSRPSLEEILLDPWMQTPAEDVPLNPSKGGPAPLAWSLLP
Pim-1, sequence (P11309 whole entry): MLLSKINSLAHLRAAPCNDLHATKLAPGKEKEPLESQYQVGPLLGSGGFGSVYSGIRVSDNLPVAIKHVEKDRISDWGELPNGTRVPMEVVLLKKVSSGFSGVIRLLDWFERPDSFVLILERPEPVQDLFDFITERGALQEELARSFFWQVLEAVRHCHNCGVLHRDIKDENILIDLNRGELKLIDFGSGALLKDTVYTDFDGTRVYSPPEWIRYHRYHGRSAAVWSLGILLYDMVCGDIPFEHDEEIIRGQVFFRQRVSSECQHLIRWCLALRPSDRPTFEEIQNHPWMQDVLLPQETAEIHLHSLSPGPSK

SMILES | IC50 [1] | IC50 [2] | IC50 [3]
Cn1ncc(NC(=O)c2c(N)sc3cc(-c4c(F)cccc4F)cnc23)c1N1CCCC(N)CC1 (stereo not drawn) [Example 27, 2-Amino-N-[5-(4-aminoazepan-1-yl)-1-methyl-1H-pyrazol-4-yl]-6-(2,6-difluorophenyl)-thieno[3,2-b]pyridine-3-carboxamide] | ≤ 0.01 µM | 0.01 to 0.1 µM | ≤ 0.01 µM
Cc1noc(C)c1-c1cnc2c(C(=O)Nc3cnccc3N3CCC[C@H](N)C3)c(N)sc2c1 [Example 28, 2-Amino-N-{4-[(3S)-3-aminopiperidin-1-yl]pyridin-3-yl}-6-(3,5-dimethylisoxazol-4-yl)-thieno[3,2-b]pyridine-3-carboxamide] | ≤ 0.01 µM | > 2 µM | > 0.04 µM
Cc1noc(C)c1-c1cnc2c(C(=O)Nc3cnn(C)c3N3CCCC(N)CC3)c(N)sc2c1 (stereo not drawn) [Example 29, 2-Amino-N-[5-(4-aminoazepan-1-yl)-1-methyl-1H-pyrazol-4-yl]-6-(3,5-dimethylisoxazol-4-yl)-thieno[3,2-b]pyridine-3-carboxamide] | ≤ 0.01 µM | 0.1 to 1 µM | ≤ 0.01 µM
Cn1ncc(NC(=O)c2c(N)sc3cc(-c4nccs4)cnc23)c1N1CCCC(N)CC1 (stereo not drawn) [Example 30, 2-Amino-N-[5-(4-aminoazepan-1-yl)-1-methyl-1H-pyrazol-4-yl]-6-(1,3-thiazol-2-yl)-thieno[3,2-b]pyridine-3-carboxamide] | ≤ 0.01 µM | 0.01 to 0.1 µM | ≤ 0.01 µM
CN1CC(c2cnc3c(C(=O)Nc4cnccc4N4CCC[C@H](N)C4)c(N)sc3c2)C1 [Example 31, 2-Amino-N-{4-[(3S)-3-aminopiperidin-1-yl]pyridin-3-yl}-6-(1-methylazetidin-3-yl)thieno[3,2-b]pyridine-3-carboxamide] | ≤ 0.01 µM | 0.1 to 1 µM | ≤ 0.01 µM
CN1CC(c2cnc3c(C(=O)Nc4cnn(C)c4N4CCCC(N)CC4)c(N)sc3c2)C1 (stereo not drawn) [Example 32, 2-Amino-N-[5-(4-aminoazepan-1-yl)-1-methyl-1H-pyrazol-4-yl]-6-(1-methylazetidin-3-yl)thieno[3,2-b]pyridine-3-carboxamide] | ≤ 0.01 µM | 0.1 to 1 µM | ≤ 0.01 µM
CC(C)N1CC(c2cnc3c(C(=O)Nc4cnccc4N4CCC[C@H](N)C4)c(N)sc3c2)C1 [Example 33, 2-Amino-N-{4-[(3S)-3-aminopiperidin-1-yl]pyridin-3-yl}-6-(1-isopropylazetidin-3-yl)thieno[3,2-b]pyridine-3-carboxamide] | ≤ 0.01 µM | > 2 µM | 0.01 to 0.1 µM
COCc1cnc2c(C(=O)Nc3cnccc3N3CCC[C@H](N)C3)c(N)sc2c1 [Example 34, 2-Amino-N-{4-[(3S)-3-aminopiperidin-1-yl]pyridin-3-yl}-6-(methoxymethyl)thieno[3,2-b]pyridine-3-carboxamide] | ≤ 0.01 µM | 0.1 to 1 µM | ≤ 0.01 µM
Nc1sc2cc(C3CCOCC3)cnc2c1C(=O)Nc1cnccc1N1CCC[C@H](N)C1 [Example 35, 2-Amino-N-{4-[(3S)-3-aminopiperidin-1-yl]pyridin-3-yl}-6-(tetrahydro-2H-pyran-4-yl)thieno[3,2-b]pyridine-3-carboxamide] | ≤ 0.01 µM | 0.01 to 0.1 µM | ≤ 0.01 µM
Nc1sc2cc(F)cnc2c1C(=O)Nc1cnccc1N1CCC[C@H](N)C1 [Example 36, 2-Amino-N-{4-[(3S)-3-aminopiperidin-1-yl]pyridin-3-yl}-6-fluoro-thieno[3,2-b]pyridine-3-carboxamide] | ≤ 0.01 µM | 0.1 to 1 µM | ≤ 0.01 µM
Cn1ncc(NC(=O)c2c(N)sc3cc(F)cnc23)c1N1CCCC(N)CC1 (stereo not drawn) [Example 37, 2-Amino-N-[5-(4-aminoazepan-1-yl)-1-methyl-1H-pyrazol-4-yl]-6-fluoro-thieno[3,2-b]pyridine-3-carboxamide] | ≤ 0.01 µM | 0.1 to 1 µM | ≤ 0.01 µM
Nc1sc2c(C(F)(F)F)ccnc2c1C(=O)Nc1cnccc1N1CCC[C@H](N)C1 [Example 38, 2-Amino-N-{4-[(3S)-3-aminopiperidin-1-yl]pyridin-3-yl}-7-trifluoromethyl-thieno[3,2-b]pyridine-3-carboxamide] | ≤ 0.01 µM | 0.1 to 1 µM | ≤ 0.01 µM
Cn1ncc(NC(=O)c2c(N)sc3ccc(Cl)nc23)c1N1CCCC(N)CC1 (stereo not drawn) [Example 39, 2-Amino-N-[5-(4-aminoazepan-1-yl)-1-methyl-1H-pyrazol-4-yl]-5-chlorothieno[3,2-b]pyridine-3-carboxamide] | ≤ 0.01 µM | 0.1 to 1 µM | ≤ 0.01 µM
Cn1ncc(NC(=O)c2c(N)sc3ccc(Cl)nc23)c1N1CCC[C@H](N)C1 [Example 41, 2-Amino-N-{5-[(3S)-3-aminopiperidin-1-yl]-1-methyl-1H-pyrazol-4-yl}-5-chlorothieno[3,2-b]pyridine-3-carboxamide] | ≤ 0.01 µM | 0.1 to 1 µM | ≤ 0.01 µM
Cc1ccc2sc(N)c(C(=O)Nc3cnn(C)c3N3CCCC(N)CC3)c2n1 (stereo not drawn) [Example 43, 2-Amino-N-[5-(4-aminoazepan-1-yl)-1-methyl-1H-pyrazol-4-yl]-5-methylthieno[3,2-b]pyridine-3-carboxamide] | ≤ 0.01 µM | > 1 µM | 0.01 to 0.1 µM
Cn1ncc(NC(=O)c2c(N)sc3ccc(-c4ccccc4)nc23)c1N1CCCC(N)CC1 (stereo not drawn) [Example 44, 2-Amino-N-[5-(4-aminoazepan-1-yl)-1-methyl-1H-pyrazol-4-yl]-5-phenylthieno[3,2-b]pyridine-3-carboxamide] | ≤ 0.01 µM | > 2 µM | ≤ 0.01 µM
Nc1oc2cccnc2c1C(=O)Nc1cnccc1N1CCC[C@H](N)C1 [Example 45, 2-Amino-N-{4-[(3S)-3-aminopiperidin-1-yl]pyridin-3-yl}furo[3,2-b]pyridine-3-carboxamide] | ≤ 0.01 µM | 0.1 to 1 µM | ≤ 0.01 µM
Cn1ncc(NC(=O)c2c(N)oc3cccnc23)c1N1CCCC(N)CC1 (stereo not drawn) [Example 46, 2-Amino-N-[5-(4-aminoazepan-1-yl)-1-methyl-1H-pyrazol-4-yl]furo[3,2-b]pyridine-3-carboxamide] | ≤ 0.01 µM | > 2 µM | 0.01 to 0.1 µM
CCc1cnc2c(C(=O)Nc3cnccc3N3CCC[C@H](N)C3)c(N)oc2c1 [Example 47, 2-Amino-N-{4-[(3S)-3-aminopiperidin-1-yl]pyridin-3-yl}-6-ethylfuro[3,2-b]pyridine-3-carboxamide] | ≤ 0.01 µM | 0.01 to 0.1 µM | ≤ 0.01 µM
Nc1oc2cc(C(F)(F)F)cnc2c1C(=O)Nc1cnccc1N1CCC[C@H](N)C1 [Example 48, 2-amino-N-{4-[(3S)-3-aminopiperidin-1-yl]pyridin-3-yl}-6-(trifluoromethyl)furo[3,2-b]pyridine-3-carboxamide] | ≤ 0.01 µM | 0.01 to 0.1 µM | ≤ 0.01 µM
Cc1cnc2c(C(=O)Nc3cnccc3N3CCC[C@H](N)C3)c(N)oc2c1 [Example 49, 2-amino-N-{4-[(3S)-3-aminopiperidin-1-yl]pyridin-3-yl}-6-methyl-furo[3,2-b]pyridine-3-carboxamide] | ≤ 0.01 µM | 0.01 to 0.1 µM | ≤ 0.01 µM
CC(C)c1cnc2c(C(=O)Nc3cnccc3N3CCC[C@H](N)C3)c(N)oc2c1 [Example 50, 2-amino-N-{4-[(3S)-3-aminopiperidin-1-yl]pyridin-3-yl}-6-(iso-propyl)furo[3,2-b]pyridine-3-carboxamide] | ≤ 0.01 µM | 0.01 to 0.1 µM | ≤ 0.01 µM
CCCc1cnc2c(C(=O)Nc3cnccc3N3CCC[C@H](N)C3)c(N)oc2c1 [Example 51, 2-amino-N-{4-[(3S)-3-aminopiperidin-1-yl]pyridin-3-yl}-6-(propyl)furo[3,2-b]pyridine-3-carboxamide] | ≤ 0.01 µM | 0.01 to 0.1 µM | ≤ 0.01 µM
Nc1oc2cc(F)cnc2c1C(=O)Nc1cnccc1N1CCC[C@H](N)C1 [Example 52, 2-amino-N-{4-[(3S)-3-aminopiperidin-1-yl]pyridin-3-yl}-6-fluoro-furo[3,2-b]pyridine-3-carboxamide] | ≤ 0.01 µM | 0.1 to 1 µM | ≤ 0.01 µM
Nc1oc2cc(Cl)cnc2c1C(=O)Nc1cnccc1N1CCC[C@H](N)C1 [Example 53, 2-amino-N-{4-[(3S)-3-aminopiperidin-1-yl]pyridin-3-yl}-6-chloro-furo[3,2-b]pyridine-3-carboxamide] | ≤ 0.01 µM | 0.01 to 0.1 µM | ≤ 0.01 µM
